According to the supplement of paper PMC7455731:

Experiment: collision cross section (DTIM-MS, N2); higher = larger ion
Description: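 Collision cross section (CCS) of drug and natural-product chemical standards (validation set 2, measured in this paper). Three independent measurements were made across 2 months; the value taken is their mean (avg_ccs), for the ion adduct given.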

SMILES	collision cross section (ion adduct: [M+H]+) [Å²]	collision cross section (ion adduct: [M-H]-) [Å²]
Oc1c(Cl)cc(Cl)cc1Sc1cc(Cl)cc(Cl)c1O [Bithionol]		169.35
O=C(Nc1ccc(Cl)cc1)Nc1ccc(Cl)c(Cl)c1 [Triclocarban]	173.83	178.67
Nc1nc(=S)c2[nH]cnc2[nH]1 [Thioguanine]	132.57	128.86
COc1ccc(C=CC(=O)c2c(O)cc(OC)cc2OC)cc1 [Flavokawain A]	176.36	184.75
CCCCCCCCCCCCCCCc1cccc(O)c1C(=O)O [Ginkgolic<U+00A0>Acid<U+00A0>C15:0<U+00A0>]		190.92
C=C1C[C@]23C[C@@]1(O)CC[C@H]2[C@@]12C=C[C@H](O)[C@@](C)(C(=O)O1)[C@H]2[C@@H]3C(=O)O [Gibberellic acid]		177.69
C[C@@H]1C/C=C/C=C/C=C/C=C/[C@H](O[C@@H]2O[C@H](C)[C@@H](O)[C@H](N)[C@@H]2O)C[C@@H]2O[C@](O)(C[C@@H](O)C[C@H]3O[C@@H]3/C=C/C(=O)O1)C[C@H](O)[C@H]2C(=O)O [Pimaricin]	261.06	262.32
CC(=O)Nc1nnc(S(N)(=O)=O)s1 [Acetazolamide]	142.71	138.64
C=CCc1cc(OC)c(OC)c(OC)c1 [Elemicin]	144.76	
CCC(=O)c1ccc(O)cc1 [Vanatone]	130	131.83
CCCCCCCCOC(=O)c1ccccc1C(=O)OCCCCCCCC [DI-N-OCTYL PHTHALATE]	211	
O=C(Nc1ccc(O)cc1)c1ccccc1O [Osalmid]	151.37	150.88
CC(C)=CCC[C@](C)(O)[C@H]1CC[C@]2(C)[C@@H]1[C@H](O)C[C@@H]1[C@@]3(C)CC[C@H](O)C(C)(C)[C@@H]3CC[C@]12C [(20S)-Protopanaxdiol]		222.94
O=C(O)C1=CO[C@@H](O[C@@H]2O[C@H](CO)[C@@H](O)[C@H](O)[C@H]2O)[C@@H]2C(CO)=CC[C@H]12 [Geniposidic acid]		184.17
COc1cc(CCC(C)=O)ccc1O [Zingerone]		146.57

Second part, the molecule after the results:

collision cross section (ion adduct: [M+H]+) [Å²]	collision cross section (ion adduct: [M-H]-) [Å²]	SMILES
149.17	148.31	Nc1nc2c(ncn2COCCO)c(=O)[nH]1 [Aciclovir]
156.69	155.06	Cc1cc(O)c2c(c1)C(=O)c1cc(O)cc(O)c1C2=O [Emodin]
	193.11	O=C(CCc1ccc(O)cc1)c1c(O)cc(O)cc1O[C@@H]1O[C@H](CO)[C@@H](O)[C@H](O)[C@H]1O [Phlorizin]
138.73		C=C(C)C1CC=C(C=NO)CC1 (stereo not given) [Perillartine]
	281.46	C=CC[C@@H]1/C=C(/C)C[C@H](C)C[C@H](OC)[C@H]2O[C@@](O)(C(=O)C(=O)N3CCCC[C@H]3C(=O)O[C@H](/C(C)=C/[C@@H]3CC[C@@H](O)[C@H](OC)C3)[C@H](C)[C@@H](O)CC1=O)[C@H](C)C[C@@H]2OC [Tacrolimus]
154.75		Cc1cccc(Nc2ccccc2C(=O)O)c1C [Mefenamic acid]
	199.23	C[C@@H]1O[C@@H](Oc2c(-c3cc(O)c(O)c(O)c3)oc3cc(O)cc(O)c3c2=O)[C@H](O)[C@H](O)[C@H]1O [Myricitrin]
	133.81	COc1cc(C(C)=O)ccc1O [Acetovanillone]
129.59	129.61	O=c1ccc2cc(O)ccc2o1 [6-Hydroxycoumarin]
	222.53	CC1(C)CC[C@]2(C(=O)O)CC[C@]3(C)C(=CC[C@@H]4[C@@]5(C)C[C@@H](O)[C@H](O)C(C)(C)[C@@H]5CC[C@]43C)[C@@H]2C1 [Crategolic acid]
